Data from patent US4536346A, “Aralkanamidophenyl compounds” (American Cyanamid Company, priority 1983, dated 1985).

What follows are compounds tested against T1, fatty acyl CoA: cholesterol acyl transferase (ACAT) (Rattus norvegicus, UniProt O70536) (assay: Inhibition of enzymatic esterification of cholesterol (ACAT) in rat adrenal supernatant containing the microsomal fraction). Settings: final concentration of test compound 5.2 μg./ml., percent inhibition of the ACAT enzyme compared to control values.
T1 construct: The supernatant, containing the microsomal fraction, served as the source of the cholesterol-esterifying enzyme; from tissue; host or cells: rat adrenals (1,000 x g supernatant containing the microsomal fraction)
T1 sequence (O70536 1-545): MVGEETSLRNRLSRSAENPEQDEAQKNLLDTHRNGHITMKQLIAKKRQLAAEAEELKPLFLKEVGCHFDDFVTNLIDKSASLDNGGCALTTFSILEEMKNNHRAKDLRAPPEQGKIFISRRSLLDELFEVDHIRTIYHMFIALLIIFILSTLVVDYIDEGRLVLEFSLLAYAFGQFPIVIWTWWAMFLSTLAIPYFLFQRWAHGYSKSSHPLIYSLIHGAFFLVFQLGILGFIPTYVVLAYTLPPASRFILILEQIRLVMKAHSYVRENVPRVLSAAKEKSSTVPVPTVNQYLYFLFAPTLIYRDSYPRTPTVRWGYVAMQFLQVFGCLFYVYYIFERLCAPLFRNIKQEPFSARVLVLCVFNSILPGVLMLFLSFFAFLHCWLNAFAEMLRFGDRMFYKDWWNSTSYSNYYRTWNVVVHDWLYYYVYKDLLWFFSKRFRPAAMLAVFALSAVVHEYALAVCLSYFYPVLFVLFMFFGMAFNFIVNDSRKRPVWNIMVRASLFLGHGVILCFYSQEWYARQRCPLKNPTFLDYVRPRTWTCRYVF
Format: biochemical
Procedure: The compounds of the present invention were tested for their ability to inhibit the enzymatic esterification of cholesterol according to the following procedure:
Rat adrenals were homogenized in 0.2M monobasic potassium phosphate buffer, pH 7.4, and centrifuged at 1,000 times gravity for 15 minutes at 5° C. The supernatant, containing the microsomal fraction, served as the source of the cholesterol-esterifying enzyme, fatty acyl CoA: cholesterol acyl transferase (ACAT). A mixture comprising 50 parts of adrenal supernatant, 10 parts of albumin (BSA) (50 mg./ml.), […], 3 parts of test compound, and 500 parts of buffer was pre-incubated at 37° C. for 10 minutes. After treatment with 20 parts of oleoyl CoA (^14 C-0.4 μCi), the mixture was incubated at 37° C. for 10 minutes. A control mixture, omitting the test compound, was prepared and treated in the same manner. The lipids from the incubation mixture were extracted into an organic solvent and separated by thin-layer chromatography. The cholesterol ester fraction was counted in a scintillation counter. This procedure is a modification of that described by Hashimoto, et al., Life Scie., 12 (Part II), 1-12 (1973).
The results of this test on representative compounds of this invention appear in Table I. The final concentration of the test compound was 5.2 μg./ml., and the effectiveness of the compound is expressed as percent inhibition of the ACAT enzyme compared to control values.

| inhibition at 5.2 µg/mL [%] | SMILES |
| --- | --- |
| 74 | CCOC(=O)c1ccc(NC(=O)C=C(C)c2ccc(Cl)cc2)cc1 [4-(p-Chloro-β-methylcinnamamido)benzoic acid, ethyl ester] |
| 71 | CC(=CC(=O)Nc1ccc(C(=O)O)cc1)c1ccc(Cl)cc1 [4-(p-Chloro-β-methylcinnamamido)benzoic acid] |
| 92 | CCOC(=O)c1ccc(NC(=O)C=C(c2ccccc2)c2ccc(Cl)cc2)cc1 [4-(p-Chloro-β-phenylcinnamamido)benzoic acid, ethyl ester] |
| 77 | O=C(C=C(c1ccccc1)c1ccc(Cl)cc1)Nc1ccc(C(=O)O)cc1 [4-(p-Chloro-β-phenylcinnamamido)benzoic acid] |
| 51 | CCOC(=O)c1ccc(NC(=O)C=Cc2ccc(Cl)cc2)cc1 [4-(p-Chlorocinnamamido)benzoic acid, ethyl ester] |
| 30 | CCOC(=O)c1ccc(NC(=O)CCc2ccc(Cl)cc2)cc1 [4-(p-Chlorohydrocinnamamido)benzoic acid, ethyl ester] |
| 33 | O=C(CCc1ccc(Cl)cc1)Nc1ccc(C(=O)O)cc1 [4-(p-Chlorohydrocinnamamido)benzoic acid] |
| 18 | O=C(CCCCCc1ccc(Cl)cc1)Nc1ccc(C(=O)O)cc1 [4-(p-Chlorophenyl)hexanamidobenzoic acid, 4-[6-(p-Chlorophenyl)hexanamido]benzoic acid] |
| 53 | CCOC(=O)c1ccc(NC(=O)C=Cc2ccc(OC)cc2)cc1 [4-(p-Methoxycinnamamido)benzoic acid, ethyl ester] |
| 20 | COc1ccc(C=CC(=O)Nc2ccc(C(=O)O)cc2)cc1 [4-(p-Methoxycinnamamido)benzoic acid] |
| 28 | CCOC(=O)c1ccc(NC(=O)CCc2ccc(OC)cc2)cc1 [4-(p-Methoxyhydrocinnamamido)benzoic acid, ethyl ester] |

Second part, the compound before the results:

| SMILES | inhibition at 5.2 µg/mL [%] |
| --- | --- |
| COC(=O)c1ccccc1NC(=O)C=C(c1ccc(Cl)cc1)c1ccc(Cl)cc1 [2-[3,3-Bis(p-chlorophenyl)acrylamido]benzoic acid, methyl ester] | 71 |
| O=C(C=C(c1ccc(Cl)cc1)c1ccc(Cl)cc1)Nc1ccccc1C(=O)O [2-[3,3-Bis(p-chlorophenyl)acrylamido]benzoic acid] | 32 |
| O=C(C=C(c1ccc(Cl)cc1)c1ccc(Cl)cc1)Nc1cccc(C(=O)O)c1 [3 - [3,3-Bis(p-chlorophenyl)acrylamido]benzoic acid] | 98 |
| N#Cc1ccc(NC(=O)C=C(c2ccc(Cl)cc2)c2ccc(Cl)cc2)cc1 [3,3-Bis(p-chlorophenyl-4'-cyanoacrylanilide] | 96 |
| COC(=O)c1cccc(NC(=O)C=C(c2ccc(Cl)cc2)c2ccc(Cl)cc2)c1 [3-[3,3-Bis(p-chlorophenyl)acrylamido]benzoic acid, methyl ester] | 94 |
| CC(=O)c1ccc(NC(=O)C=C(c2ccc(Cl)cc2)c2ccc(Cl)cc2)cc1 [4'-Acetyl-3,3-bis(p-chlorophenyl)acrylanilide] | 86 |
| COc1ccc(C(CC(=O)Nc2ccc(C(C)=O)cc2)c2ccc(OC)cc2)cc1 [4'-[3,3-Bis(4-methoxyphenyl)propionamido]acetophenone] | 82 |
| COc1ccc(C(CC(=O)Nc2ccc(C(=O)O)cc2)c2ccc(OC)cc2)cc1 [4'-[3,3-Bis(4-methoxyphenyl)propionamido]benzoic acid] | 45 |
| O=C(C=C(c1ccccc1)c1ccccc1)Nc1ccc(C(=O)O)cc1 [4-(3,3-Diphenylacrylamido)benzoic acid] | 66 |
| CCOC(=O)c1ccc(NC(=O)C=C(C)c2ccc(Cl)c(Cl)c2)cc1 [4-(3,4-Dichlorophenyl-β-methylacrylamido)benzoic acid, ethyl ester] | 74 |
| CCOC(=O)c1ccc(NC(=O)C=C(c2ccccc2)c2ccc(Cl)c([N+](=O)[O-])c2)cc1 [4-(4-Chloro-3-nitro-β-phenylcinnamamido)benzoic acid, ethyl ester] | 94 |
